Source: patent US10011562B2, “Long-chain dimethylaniline derivative compounds, their preparation methods, self-assembled textures, and uses thereof” (WEST CHINA HOSPITAL, SICHUAN UNIVERSITY, priority 2014, dated 2018)
Structures can show the parent of a compound that is named as a salt.

Tests used:
[1] = test system: Na+ channels; settings: with the addition of surface-active agent or with the help of forming micelles; cited from earlier work
[2] = test system: sciatic nerve of rats; test: First local anesthetic experiment of rats: blocking of sciatic nerve, mechanical withdrawal threshold (VFH, von Frey filaments); assay type: in vivo
Protocol: (§1) Selected above micelle, positive control lidocaine, and negative control normal saline were respectively administrated to 28 groups of test rats fully adapted to experiment environment, with five rats for each group. The administration dosage is: the concentration of lidocaine group being 2% aqueous solution (84 mmol/L), and the concentration of tested drug being 5 mmol/L. The injection volume of each rat receiving drugs or the control was 0.2 ml, and the drug or the control was injected to close to sciatic nerve of rats by guidance of nerve locator.
(§2) The tested rats were placed on bench board and allowed to inhale 5% isoflurane. After body-righting reflex abolition, rats are allowed to continue inhaling 1.5% isoflurane, to keep anesthesia. Keeping left-lateral position, their corresponding injection area sacrococygeal region was shaved, then routine sterilization and draping were performed. Two osseous anatomic landmarks greater trochanter of femur and tuber is chiadicum were laid hands, and the middle point of this line was the needle insertion position. If skin was taut, 1 ml injector was inserted along perpendicular of skin. When needlepoint reached hucklebone, the insertion was finished. […] Needle was lifted, and is oflurane was shut off. Animals were placed in observation cage until they naturally awakened.
(§3) Rats were placed in transparent observation cages with a bottom of smooth metal sieve plate, and the corrected von frey filament was used to stimulate the foot lateral skin of rats (innervated region of sciatic nerve) from down to up. […] For each stimulation, slightly bent of filament was used as a standard, or rats moved aside this side of limbs. Otherwise, once the stimulation time reached 3 s, operator stopped stimulating. Three tests were carried out for each time point, and the interval between two tests was 5 min, to avoid sensibilization.
(§4) If the mechanical withdrawal threshold value was more than 60 g, the nerve blocking was considered as effective.

[3] = test system: sciatic nerve of rats; test: First local anesthetic experiment of rats: blocking of sciatic nerve, motor function by hindlimb postural extensor thrust (PET); assay type: in vivo
Protocol: as §1, §2
(§5) The hindlimb postural extensor thrust (PET) was used for evaluation. Rats were lifted vertically and their hindlimbs of injection side stepped on the top of electronic balance. At this time, the postural extensor thrust was shown as the value of balance. When limbs were completely paralytic, the digital reading was the weight of limbs, about 20 g. If the test value was more than half of the difference between the baseline and the limbs weight, the motor function was taken as recovery; If less than or equal to half of the difference, the motor function was taken as deprivation.
(§6) The interval between completion of injection and the time point that the motor function was firstly deprivated was the time of effective motor blocking; the interval between completion of injection and the time point that the motor function was firstly recovered was the time of ineffective motor blocking; their difference was the hold time of motor blocking.

[4] = test system: sciatic nerve of rats; test: Third local anesthetic experiment of rats: hydrogels embedded near the sciatic nerve, mechanical withdrawal threshold (VFH); assay type: in vivo
Protocol: as §3, §4
(§7) 25 mmol/L transparent uniform hydrogels of products obtained in Examples 7-10 and 13-32 were prepared under sterile conditions, as the method of Example 45, and kept for use.
(§8) Above hydrogels, positive control lidocaine, and negative control normal saline were respectively administrated to 35 groups of test rats fully adapted to experiment environment, with five rats for each group. The administration dosage is: the concentration of lidocaine group being 2% aqueous solution (84 mmol/L). The injection volume of each rat receiving drugs or the control was […], and the control was injected to near the sciatic nerve of rats by guidance of nerve locator; by surgery, the gels were embedded near the sciatic nerve of experimental rats after general anesthesia using sevoflurane. Specific procedures and the evaluation criterion for local anesthetic effect were same as mentioned in Example 60.

[5] = test system: sciatic nerve of rats; test: Third local anesthetic experiment of rats: hydrogels embedded near the sciatic nerve, motor function (PET); assay type: in vivo
From the text: as §5, §6, §7, §8

[6] = test system: sciatic nerve of rats; test: Second local anesthetic experiment of rats: blocking of sciatic nerve, mechanical withdrawal threshold (VFH); assay type: in vivo; settings: 0.2 ml of formulated solution injected close to sciatic nerve, lidocaine 2% (84 mmol/L)
Protocol: (§9) The tested rats were placed on bench board and allowed to inhale 5% isoflurane. After body-righting reflex abolition, rats are allowed to continue inhaling 1.5% isoflurane, to keep anesthesia. Keeping left-lateral position, their corresponding injection area sacrococygeal region was shaved, then routine sterilization and draping were performed. Two osseous anatomic landmarks greater trochanter of femur and tuber is chiadicum were laid hands, and the middle point of this line was the needle insertion position. If skin was taut, 1 ml injector was inserted along perpendicular of skin. When needlepoint reached hucklebone, the insertion was finished. Once no blood return was found as suction, 0.2 ml drug solution was slowly injected. Needle was lifted, and is oflurane was shut off. Animals were placed in observation cage until they naturally awakened.
as §3, with “sensibilization. […]” for “sensibilization.”

[7] = test system: sciatic nerve of rats; test: Second local anesthetic experiment of rats: blocking of sciatic nerve, motor function (PET); assay type: in vivo; settings: 0.2 ml of formulated solution injected close to sciatic nerve, lidocaine 2% (84 mmol/L)
Protocol: as §9
The hindlimb postural extensor thrust (PET) was used for evaluation. Rats were lifted vertically and their hindlimbs of injection side stepped on the top of electronic balance. At this time, the postural extensor thrust was shown as the value of balance. When limbs were completely paralytic, the digital reading was the weight of limbs, about 20 g. […]

[8] = rats, 25 mmol/L hydrogel, 0.2 g embedded by surgery near sciatic nerve, lidocaine 2% (84 mmol/L) injected

Row | SMILES | local anesthetic actions lasting [1] | Effective local anesthetic time ([2]; rat, in vivo) [min] | The hold time of sensation blocking ([2]; rat, in vivo) [h] | The hold time of motor blocking ([3]; rat, in vivo) [h] | Effective local anesthetic time ([4]; rat, in vivo) [min] | The hold time of sensation blocking ([4]; rat, in vivo) [h] | The hold time of motor blocking ([5]; rat, in vivo) [h] | The hold time of sensation blocking ([2]; rats, 0.2 ml injected close to sciatic nerve, tested drug 5 mmol/L solution (micelle), lidocaine 2% (84 mmol/L), threshold above 60 g) [h] | Effective local anesthetic time ([2]; rats, 0.2 ml injected close to sciatic nerve, tested drug 5 mmol/L solution (micelle), lidocaine 2% aqueous solution (84 mmol/L)) [min] | The hold time of motor blocking ([3]; rats, 0.2 ml injected close to sciatic nerve, tested drug 5 mmol/L solution (micelle), lidocaine 2% (84 mmol/L)) [h] | Effective local anesthetic time [6] [min] | The hold time of sensation blocking [6] [h] | The hold time of motor blocking [7] [h] | Effective local anesthetic time [4, 8] [min] | The hold time of sensation blocking [4, 8] [h] | The hold time of motor blocking [5, 8] [h]
1 | CC[N+](CC)(CC)CC(=O)Nc1c(C)cccc1C.[Br-] [QX314] | more than 8 hours |  |  |  |  |  |  |  |  |  |  |  |  |  |  | 
2 | CCCCCCCCCCCCCCCC(=O)OCC[N+](CC)(CC)CC(=O)Nc1c(C)cccc1C [Example10product] |  | 20 | 81 | 81 | 85 | 80 | 72 |  |  |  |  |  |  |  |  | 
3 | CCCCCCCCCCOC(=O)OCC[N+](CC)(CC)CC(=O)Nc1c(C)cccc1C [Example23product] |  | 20 | 82 | 62 | 80 | 92 | 76 |  |  |  |  |  |  |  |  | 
4 | CCCCCCCCCCCCCCCCCCOC(=O)OCC[N+](CC)(CC)CC(=O)Nc1c(C)cccc1C [Example31product] |  | 20 | 78 | 80 | 92 | 83 | 78 |  |  |  |  |  |  |  |  | 
5 | CCN(CC)CC(=O)Nc1c(C)cccc1C [2% lidocaine hydrochloride, lidocaine hydrochloride, reference compound] |  |  |  |  |  |  |  | 2 | 1 | 2 | 1 | 2 | 2 | 1 | 2 | 2
